# Assay results: patent US12202835B2, “Substituted aromatic ring-linked dioxinoquinazolines and dioxinoquinolines as kinase inhibitors” (BEIJING SCITECH-MQ PHARMACEUTICALS LIMITED, priority 2018, dated 2025)
# Read-outs that look alike come from different tables or passages of the source.
# Key:
# [1] = test system: MHCC97H cells; assay: Assay for inhibiting the proliferation of MHCC97H cells (CCK-8); format: cell-based
# Outline: (§1)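 Cells seeded in 96-well plates overnight, then exposed 72 h to 9 three-fold dilutions of compound (0.25% DMSO final). Viability by CCK-8 (1-2 h at 37° C., OD 450 nm), survival normalized to untreated and cell-free blanks; IC50 by curve fitting.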
# [2] = biological target: c-MET kinase (Homo sapiens (Human), UniProt P08581); assay: Assay of small molecular compounds for inhibiting the activity of c-MET kinase (LANCE TR-FRET); format: biochemical; conditions: read-out: CMET IC50
# Sequence of c-MET kinase (P08581 25-1390): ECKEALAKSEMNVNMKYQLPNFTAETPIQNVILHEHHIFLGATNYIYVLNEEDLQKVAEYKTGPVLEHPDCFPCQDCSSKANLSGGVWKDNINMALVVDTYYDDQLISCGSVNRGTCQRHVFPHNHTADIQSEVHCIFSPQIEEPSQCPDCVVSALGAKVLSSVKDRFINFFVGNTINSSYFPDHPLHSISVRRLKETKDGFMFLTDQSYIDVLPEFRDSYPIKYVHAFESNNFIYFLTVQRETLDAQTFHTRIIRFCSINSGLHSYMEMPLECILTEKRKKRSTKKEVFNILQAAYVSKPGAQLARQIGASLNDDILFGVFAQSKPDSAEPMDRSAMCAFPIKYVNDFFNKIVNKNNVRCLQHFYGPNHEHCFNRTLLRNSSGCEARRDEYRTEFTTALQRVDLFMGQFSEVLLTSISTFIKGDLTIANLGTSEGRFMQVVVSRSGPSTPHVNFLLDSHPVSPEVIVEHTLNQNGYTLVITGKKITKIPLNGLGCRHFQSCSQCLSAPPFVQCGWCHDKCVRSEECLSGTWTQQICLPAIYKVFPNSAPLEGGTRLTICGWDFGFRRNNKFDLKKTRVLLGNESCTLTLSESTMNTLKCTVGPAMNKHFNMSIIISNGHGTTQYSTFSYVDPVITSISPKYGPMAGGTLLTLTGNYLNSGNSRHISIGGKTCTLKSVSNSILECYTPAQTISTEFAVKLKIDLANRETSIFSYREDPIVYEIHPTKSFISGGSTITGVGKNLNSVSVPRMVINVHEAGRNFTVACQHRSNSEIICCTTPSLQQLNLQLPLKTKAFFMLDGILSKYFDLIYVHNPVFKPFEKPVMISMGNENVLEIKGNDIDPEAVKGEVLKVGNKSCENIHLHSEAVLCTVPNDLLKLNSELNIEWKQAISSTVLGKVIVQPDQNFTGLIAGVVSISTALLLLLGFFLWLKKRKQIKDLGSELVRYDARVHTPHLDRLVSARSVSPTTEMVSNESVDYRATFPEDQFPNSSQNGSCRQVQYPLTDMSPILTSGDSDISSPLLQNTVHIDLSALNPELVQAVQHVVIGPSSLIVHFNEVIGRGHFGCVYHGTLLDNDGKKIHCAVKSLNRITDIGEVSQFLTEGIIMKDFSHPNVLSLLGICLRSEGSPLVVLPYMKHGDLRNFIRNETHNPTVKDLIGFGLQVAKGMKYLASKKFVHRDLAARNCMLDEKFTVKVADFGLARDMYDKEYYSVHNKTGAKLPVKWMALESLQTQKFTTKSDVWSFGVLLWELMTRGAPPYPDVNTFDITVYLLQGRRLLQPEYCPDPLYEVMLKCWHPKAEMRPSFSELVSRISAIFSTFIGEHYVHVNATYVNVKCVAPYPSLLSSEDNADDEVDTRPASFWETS
# Outline: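 LANCE TR-FRET assay with c-MET at 1 nM final after a 5 min room-temperature preincubation with compound (11-point, 3-fold series, 2500–0.042 nM final, 4% DMSO). ULight-JAK-1 (Tyr1023) peptide (100 nM final) and ATP (10 μM final) reacted 60 min in the dark. Inhibition was taken relative to controls, then IC50 fitted.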
# [3] = test system: EBC1 cells; assay: Assay for inhibiting the proliferation of EBC1 cells (CCK-8); format: cell-based
# Outline: as §1
# [4] = biological target: MER kinase (Homo sapiens (Human), UniProt Q12866); assay: Assay of small molecular compounds for inhibiting the activity of MER kinase (LANCE TR-FRET); format: biochemical
# Sequence of MER kinase (Q12866 21-999): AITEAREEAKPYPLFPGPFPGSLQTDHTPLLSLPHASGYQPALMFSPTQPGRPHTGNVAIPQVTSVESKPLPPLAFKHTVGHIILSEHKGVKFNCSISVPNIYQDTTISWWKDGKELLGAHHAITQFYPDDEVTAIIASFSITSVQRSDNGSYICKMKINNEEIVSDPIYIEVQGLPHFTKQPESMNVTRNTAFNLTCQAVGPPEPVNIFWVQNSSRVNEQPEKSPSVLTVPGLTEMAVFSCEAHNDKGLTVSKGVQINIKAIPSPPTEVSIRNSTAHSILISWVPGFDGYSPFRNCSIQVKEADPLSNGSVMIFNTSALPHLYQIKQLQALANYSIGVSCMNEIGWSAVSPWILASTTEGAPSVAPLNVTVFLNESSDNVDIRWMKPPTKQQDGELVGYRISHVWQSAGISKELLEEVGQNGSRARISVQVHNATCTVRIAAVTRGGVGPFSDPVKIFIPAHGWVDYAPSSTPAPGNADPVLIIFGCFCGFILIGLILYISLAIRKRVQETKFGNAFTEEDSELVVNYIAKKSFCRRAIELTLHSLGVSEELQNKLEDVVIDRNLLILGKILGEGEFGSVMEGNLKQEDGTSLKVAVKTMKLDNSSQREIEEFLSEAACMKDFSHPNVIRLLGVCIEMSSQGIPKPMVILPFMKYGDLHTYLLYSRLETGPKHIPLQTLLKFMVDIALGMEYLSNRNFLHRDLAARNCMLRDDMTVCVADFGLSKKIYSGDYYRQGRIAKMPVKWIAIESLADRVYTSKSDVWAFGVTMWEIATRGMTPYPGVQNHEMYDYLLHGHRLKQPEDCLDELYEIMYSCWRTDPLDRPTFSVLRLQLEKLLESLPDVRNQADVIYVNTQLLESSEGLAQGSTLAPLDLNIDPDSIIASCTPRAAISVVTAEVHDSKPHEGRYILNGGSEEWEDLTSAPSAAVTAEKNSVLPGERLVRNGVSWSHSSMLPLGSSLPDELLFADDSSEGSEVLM
# Outline: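 MER kinase preincubated 5 min at RT with compound (11 points, 0.042-2500 nM final), then ULight-poly GT and ATP added (4× stocks 200 nM and 20 μM) for 60 min at RT, 1% DMSO. Phosphorylation detected by LANCE TR-FRET; IC50 from % inhibition versus controls.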
Structure (SMILES),IC50 [2] [nM],IC50 [4] [nM],IC50 ([1]; Homo sapiens) [nM],"IC50 ([3]; Homo sapiens, EBC-1) [nM]",IC50 [1] [nM],IC50 [3] [nM]
"O=C(Nc1ccc(Oc2ccnc3cc(OCCCN4CCCCC4)c4c(c23)OCCO4)c(F)c1)c1cccn(-c2ccc(F)cc2)c1=O [Example 31, N-(3-fluoro-4-((5-(3-(piperidin-1-yl)propoxy)-2,3-dihydro-[1,4]dioxino[2,3-f]quinolin-10-yl)oxy)phenyl)-1-(4-fluorophenyl)-2-oxo-1,2-dihydropyridine-3-carboxamide]",≤ 50,≤ 50,,,≤ 50,≤ 50
"CCOc1ccn(-c2ccc(F)cc2)c(=O)c1C(=O)Nc1ccc(Oc2ncnc3cc(OCCCN4CCOCC4)c4c(c23)OCCO4)c(F)c1 [Example 6, N-(3-fluoro-4-((5-(3-morpholinopropoxy)-2,3-dihydro-[1,4]dioxino[2,3-f]quinazolin-10-yl)oxy)phenyl)-1-(4-fluorophenyl)-4-ethoxy-2-oxo-1,2-dihydropyridine-3-carboxamide]",≤ 50,≤ 50,50 to 200,≤ 50,,
"COCCOc1cc2nccc(Oc3ccc(NC(=O)c4cn(C)c(=O)n(-c5ccc(F)cc5)c4=O)cc3F)c2c2c1OCCO2 [Example 42, N-(3-fluoro-4-((5-(2-methoxyethoxy)-2,3-dihydro-[1,4]dioxino[2,3-f]quinolin-10-yl)oxy)phenyl)-3-(4-fluorophenyl)-1-methyl-2,4-dioxo-1,2,3,4-tetrahydropyrimidine-5-carboxamide]",≤ 50,≤ 50,≤ 50,≤ 50,,
"CC(C)n1cc(C(=O)Nc2ccc(Oc3ccnc4cc(OCC5(N)CC5)c5c(c34)OCCO5)c(F)c2)c(=O)n(-c2ccc(F)cc2)c1=O [Example 106, N-(3-fluoro-4-((5-((1-aminocyclopropyl)methoxy)-2,3-dihydro-[1,4]dioxino[2,3-f]quinolin-1 0-yl)oxy)phenyl)-3-(4-fluorophenyl)-1-isopropyl-2,4-dioxo-1,2,3,4-tetrahydropyrimidine-5-carboxamide]",50 to 500,≤ 50,50 to 200,≤ 50,,
"CCn1cc(C(=O)Nc2ccc(Oc3ccnc4cc(OCCCN5CCCCC5)c5c(c34)OCCO5)c(F)c2)c(=O)n(-c2ccc(F)cc2)c1=O [Example 41, N-(3-fluoro-4-((5-(3-(piperidin-1-yl)propoxy)-2,3-dihydro-[1,4]dioxino[2,3-f]quinolin-10-yl)oxy)phenyl)-3-(4-fluorophenyl)-1-ethyl-2,4-dioxo-1,2,3,4-tetrahydropyrimidine-5-carboxamide]",≤ 50,≤ 50,50 to 200,≤ 50,,
"COc1cc2nccc(Oc3ccc(NC(=O)c4cccn(-c5ccc(F)cc5)c4=O)cc3F)c2c2c1OCCO2 [Example 17, N-(3-fluoro-4-((5-methoxy-2,3-dihydro-[1,4]dioxino[2,3-f]quinolin-10-yl)oxy)phenyl)-1-(4-fluorophenyl)-2-oxo-1,2-dihydropyridine-3-carboxamide]",≤ 50,≤ 50,≤ 50,≤ 50,,
"CCOc1ccn(-c2cccc(F)c2)c(=O)c1C(=O)Nc1ccc(Oc2ccnc3cc(OC)c4c(c23)OCCO4)c(F)c1 [Example 114, N-(3-fluoro-4-((5-methoxy-2,3-dihydro-[1,4]dioxino[2,3-f]quinolin-10-yl)oxy)phenyl)-2-oxo-4-ethoxy-1-(3-fluorophenyl)-1,2-dihydropyridin-3-carboxamide]",≤ 50,≤ 50,50 to 200,50 to 200,,

# More lines, main results first:
IC50 [2] [nM],IC50 [4] [nM],Structure (SMILES),IC50 ([1]; Homo sapiens) [nM],"IC50 ([3]; Homo sapiens, EBC-1) [nM]",IC50 [1] [nM],IC50 [3] [nM]
≤ 50,≤ 50,"COc1ccn(-c2ccc(F)cc2)c(=O)c1C(=O)Nc1ccc(Oc2ncnc3cc(OCCCN4CCOCC4)c4c(c23)OCCO4)c(F)c1 [Example 5, N-(3-fluoro-4-((5-(3-morpholinopropoxy)-2,3-dihydro-[1,4]dioxino[2,3-f]quinazolin-10-yl)oxy)phenyl)-1-(4-fluorophenyl)-4-methoxy-2-oxo-1,2-dihydropyridine-3-carboxamide]",50 to 200,≤ 50,,
≤ 50,≤ 50,"COc1cn(-c2ccc(F)cc2C)nc1C(=O)Nc1ccc(Oc2ccnc3cc(OCCCN4CCOCC4)c4c(c23)OCCO4)c(F)c1 [Example 27, 1-(4-fluoro-2-methylphenyl)-N-(3-fluoro-4-((5-(3-morpholinopropoxy)-2,3-dihydro-[1,4]dioxino[2,3-f]quinolin-10-yl)oxy)phenyl)-4-methoxy-1H-pyrazole-3-carboxamide]",50 to 200,50 to 200,,
≤ 50,≤ 50,"CCOc1ccn(-c2ccc(F)cc2)c(=O)c1C(=O)Nc1ccc(Oc2ccnc3cc(OCCCN4CCOCC4)c4c(c23)OCCO4)c(F)c1 [Example 22, N-(3-fluoro-4-((5-(3-morpholinopropoxy)-2,3-dihydro-[1,4]dioxino[2,3-f]quinolin-10-yl)oxy)phenyl)-1-(4-fluorophenyl)-4-ethoxy-2-oxo-1,2-dihydropyridine-3-carboxamide]",≤ 50,≤ 50,,
≤ 50,≤ 50,"CCOc1ccn(-c2ccc(F)cc2)c(=O)c1C(=O)Nc1ccc(Oc2ccnc3cc(OCCCN4CCCCC4)c4c(c23)OCCO4)c(F)c1 [Example 33, N-(3-fluoro-4-((5-(3-(piperidin-1-yl)propoxy)-2,3-dihydro-[1,4]dioxino[2,3-f]quinolin-10-yl)oxy)phenyl)-1-(4-fluorophenyl)-4-ethoxy-2-oxo-1,2-dihydropyridine-3-carboxamide]",≤ 50,≤ 50,,
≤ 50,≤ 50,"COc1cc2nccc(Oc3ccc(NC(=O)c4cn(C)c(=O)n(-c5ccc(F)cc5)c4=O)cc3F)c2c2c1OCCO2 [Example 13, N-(3-fluoro-4-((5-methoxy-2,3-dihydro-[1,4]dioxino[2,3-f]quinolin-10-yl)oxy)phenyl)-3-(4-fluorophenyl)-1-methyl-2,4-dioxo-1,2,3,4-tetrahydropyrimidine-5-carboxamide]",50 to 200,50 to 200,,
≤ 50,≤ 50,"COc1ccn(-c2ccc(F)cc2)c(=O)c1C(=O)Nc1ccc(Oc2ccnc3cc(OCCCN4CCOCC4)c4c(c23)OCCO4)c(F)c1 [Example 21, N-(3-fluoro-4-((5-(3-morpholinopropoxy)-2,3-dihydro-[1,4]dioxino[2,3-f]quinolin-10-yl)oxy)phenyl)-1-(4-fluorophenyl)-4-methoxy-2-oxo-1,2-dihydropyridine-3-carboxamide]",≤ 50,≤ 50,,
≤ 50,≤ 50,"CCOc1ccn(-c2ccc(F)cc2)c(=O)c1C(=O)Nc1ccc(Oc2ccnc3cc(OC)c4c(c23)OCCO4)c(F)c1 [Example 19, N-(3-fluoro-4-((5-methoxy-2,3-dihydro-[1,4]dioxino[2,3-f]quinolin-10-yl)oxy)phenyl)-1-(4-fluorophenyl)-4-ethoxy-2-oxo-1,2-dihydropyridine-3-carboxamide]",≤ 50,≤ 50,,
≤ 50,≤ 50,"COc1ccn(-c2ccc(F)cc2)c(=O)c1C(=O)Nc1ccc(Oc2ccnc3cc(OCCCN4CCCCC4)c4c(c23)OCCO4)c(F)c1 [Example 32, N-(3-fluoro-4-((5-(3-(piperidin-1-yl)propoxy)-2,3-dihydro-[1,4]dioxino[2,3-f]quinolin-10-yl)oxy)phenyl)-1-(4-fluorophenyl)-4-methoxy-2-oxo-1,2-dihydropyridine-3-carboxamide]",50 to 200,≤ 50,,
